Common to all, as to assay type: biochemical
The target in assay [1] is Pim-3 (Homo sapiens (Human), UniProt Q86V86). Put plainly: Pim-3 kinase assay. The settings on record: 1 mM ATP; read-out: Pim3 IC50. The essentials:
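AlphaScreen-type assay: […] Pim-3 phosphorylates 0.05 μM biotin-BAD peptide with 1 mM ATP, 1 h at 25 °C, pH 7.5 Tris buffer with MgCl2 and DTT. EDTA stop with phospho-BAD (Ser112) antibody and donor/acceptor beads, 1 h dark incubation before reading.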

Assay [2] addresses Pim-2 (Homo sapiens (Human), UniProt Q9P1W9). Put plainly: Pim-2 kinase assay. The settings on record: 1 mM ATP; read-out: Pim2 IC50.
Assay [3] deals with Pim-1 (Homo sapiens (Human), UniProt P11309). Put plainly: Pim-1 kinase assay. The following applies: 1 mM ATP; read-out: Pim1 IC50. How it is done:
Supplementation of the STOP buffer with beads and stopping the reactions were done under reduced light. Prior to the stopping reactions STOP buffer with beads was pre-incubated for 1 h in the dark at room temperature. After stopping the reactions, plates were incubated for 1 h in the dark at room temperature before reading on a PHERAstar FS plate reader (BMG Labtech) under reduced light.

The structures appear in SMILES notation.

Chain of Pim-2 (Q9P1W9 whole entry): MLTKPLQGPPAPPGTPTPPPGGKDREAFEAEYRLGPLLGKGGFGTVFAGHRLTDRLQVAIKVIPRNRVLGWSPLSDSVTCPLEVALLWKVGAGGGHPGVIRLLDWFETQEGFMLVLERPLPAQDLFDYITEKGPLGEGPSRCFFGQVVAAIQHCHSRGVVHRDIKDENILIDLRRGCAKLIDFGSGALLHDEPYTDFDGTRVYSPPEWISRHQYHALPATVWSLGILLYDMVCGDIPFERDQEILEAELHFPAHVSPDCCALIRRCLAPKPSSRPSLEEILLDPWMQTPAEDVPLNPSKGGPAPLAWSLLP
Chain of Pim-1 (P11309 whole entry): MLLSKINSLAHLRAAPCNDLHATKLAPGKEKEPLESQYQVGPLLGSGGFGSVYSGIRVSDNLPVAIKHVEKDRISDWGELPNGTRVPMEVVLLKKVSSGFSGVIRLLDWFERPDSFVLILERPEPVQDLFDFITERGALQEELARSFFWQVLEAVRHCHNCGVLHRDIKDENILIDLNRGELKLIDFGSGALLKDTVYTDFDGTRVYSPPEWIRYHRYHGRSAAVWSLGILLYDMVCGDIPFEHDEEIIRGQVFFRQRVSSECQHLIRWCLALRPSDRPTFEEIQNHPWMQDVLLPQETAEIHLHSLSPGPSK

`C[C@@H]1C[C@H](N)CN(c2c(NC(=O)c3ccc(F)c(-c4c(F)cc(C(C)(C)O)cc4F)n3)cnc3c2CCC3O)C1` (single isomer, unassigned) [67 (Diastereoisomer 2)]: the 50% inhibitory concentration (IC50) in assay [1], in assay [2] and in assay [3] was at most 100 nM in each case.

With `N[C@H]1CCCN(c2c(NC(=O)c3csc(-c4c(F)cccc4F)n3)cnc3c2CCO3)C1` [Example 10, N-{4-[(3S)-3-Aminopiperidin-1-yl]-2,3-dihydrofuro[2,3-b]pyridin-5-yl}-2-(2,6-difluorophenyl)-1,3-thiazole-4-carboxamide], the results for the IC50 in assay [1], in assay [2] and in assay [3] were at most 100 nM, 100 to 1000 nM and at most 100 nM, respectively.

Take `C[C@H]1CN(c2c(NC(=O)c3nc(-c4c(F)cccc4F)sc3N)cnc3c2CCC3O)C[C@@H](N)[C@@H]1O` (single isomer, unassigned) [49 (Diastereoisomer 2)]: the IC50 in assay [1], in assay [2] and in assay [3] was at most 100 nM in each case.

Consider `C[C@@H]1C[C@H](N)CN(c2c(NC(=O)c3ccc(F)c(-c4c(F)cc([S+](C)[O-])cc4F)n3)cnc3c2CCC3O)C1` (single isomer, unassigned) [60 (Diastereoisomer 2)], for which the results for the IC50 in assay [1], in assay [2] and in assay [3] were at most 100 nM, 100 to 1000 nM and at most 100 nM, respectively.

On to `C[C@@H]1C[C@H](N)CN(c2c(NC(=O)c3nc(-c4c(F)cccc4F)c(F)cc3N)cnc3c2CCO3)C1` [Example 38, 3-Amino-N-{4-[(3S,5R)-3-amino-5-methylpiperidin-1-yl]-2,3-dihydrofuro[2,3-b]pyridin-5-yl}-6-(2,6-difluorophenyl)-5-fluoropyridine-2-carboxamide], for which the IC50 in assay [1], in assay [2] and in assay [3] was at most 100 nM each time.

Turning to `Nc1ncc(-c2c(F)cccc2F)nc1C(=O)Nc1cnc2c(c1N1CCC[C@H](N)C1)CCC2O` (single isomer, unassigned) [62 (Diastereoisomer 1)], the values for the IC50 in assay [1], in assay [2] and in assay [3] were at most 100 nM, 100 to 1000 nM and at most 100 nM, respectively.

For `CCOc1cc(F)c(-c2nc(C(=O)Nc3cnc4c(c3N3C[C@@H](N)[C@H](O)[C@@H](C)C3)CCC4O)ccc2F)c(F)c1` (single isomer, unassigned) [51 (Diastereoisomer 2)], the IC50 in assay [1], in assay [2] and in assay [3] was at most 100 nM throughout.

As for `N[C@H]1C[C@@H](C(F)(F)F)CN(c2c(NC(=O)c3ccc(F)c(-c4c(F)cccc4F)n3)cnc3c2CCO3)C1` [Example 43, N-{4-[(3S,5R)-3-amino-5-(trifluoromethyl)piperidin-1-yl]-2,3-dihydrofuro[2,3-b]pyridin-5-yl}-6-(2,6-difluorophenyl)-5-fluoropyridine-2-carboxamide], the IC50 in assay [1], in assay [2] and in assay [3] was at most 100 nM in each case.

Regarding `C[C@H]1CN(c2c(NC(=O)c3nc(-c4c(F)cccc4F)c(F)cc3N)cnc3c2CCC3O)C[C@@H](N)[C@@H]1O` (single isomer, unassigned) [48 (Diastereoisomer 1)], the results for the IC50 in assay [1], in assay [2] and in assay [3] were at most 100 nM, 100 to 1000 nM and at most 100 nM, respectively.

As to `Nc1sc(-c2c(F)cccc2F)nc1C(=O)Nc1cnc2ccsc2c1N1CC[C@@H](O)[C@H](N)C1` (single isomer, unassigned) [Example 29, 5-Amino-N-{7-[3,4-trans-3-amino-4-hydroxypiperidin-1-yl]thieno[3,2-b]pyridin-6-yl}-2-(2,6-difluorophenyl)-1,3-thiazole-4-carboxamide], the IC50 (in general, the point on the concentration scale where inhibition reaches its midpoint) in assay [1] is at most 100 nM; in assay [2] it was 100 to 1000 nM; in assay [3] it was at most 100 nM.

Take `C[C@H]1CN(c2c(NC(=O)c3ccc(F)c(-c4c(F)cccc4F)n3)cnc3c2CCC3O)C[C@@H](N)[C@@H]1O` (mixture of isomers) [Example 37, N-{4-[(3R,4R,5S)-3-Amino-4-hydroxy-5-methylpiperidin-1-yl]-7-hydroxy-6,7-dihydro-5H-cyclopenta[b]pyridin-3-yl}-6-(2,6-difluorophenyl)-5-fluoropyridine-2-carboxamide]: the IC50 in assay [1], in assay [2] and in assay [3] was at most 100 nM throughout.

Regarding `Nc1cc(F)c(-c2c(F)cccc2F)nc1C(=O)Nc1cnc2c(c1N1CCC[C@H](N)C1)CCC2O` (single isomer, unassigned) [23 (Diastereoisomer 2)], the IC50 in assay [1], in assay [2] and in assay [3] was at most 100 nM each time.

For `Nc1ncc(-c2c(F)cccc2F)nc1C(=O)Nc1cnc2c(c1N1CCC[C@H](N)C1)CCC2O` (single isomer, unassigned) [62 (Diastereoisomer 2)], the IC50 in assay [1] was at most 100 nM; in assay [2], 100 to 1000 nM; in assay [3] it was at most 100 nM.

With `C[C@H]1CN(c2c(NC(=O)c3nc(-c4c(F)cccc4F)sc3N)cnc3c2CCC3)C[C@@H](N)[C@@H]1O` [Example 28, 5-Amino-N-{4-[(3R,4R,5S)-3-amino-4-hydroxy-5-methylpiperidin-1-yl]-6,7-dihydro-5H-cyclopenta[b]pyridin-3-yl}-2-(2,6-difluorophenyl)-1,3-thiazole-4-carboxamide], the IC50 in assay [1], in assay [2] and in assay [3] was at most 100 nM each time.

`COc1ccc(F)c(-c2nc(C(=O)Nc3cnc4c(c3N3C[C@H](C)C[C@H](N)C3)CCC4O)c(N)s2)c1F` (single isomer, unassigned) [54 (Diastereoisomer 1)]: the IC50 in assay [1], in assay [2] and in assay [3] was at most 100 nM in each case.

On to `CS(=O)(=O)c1cc(F)c(-c2nc(C(=O)Nc3cnc4c(c3N3CCC[C@H](N)C3)CCC4O)ccc2F)c(F)c1` (single isomer, unassigned) [61 (Diastereoisomer 2)], for which the IC50 is at most 100 nM in assay [1], 100 to 1000 nM in assay [2] and at most 100 nM in assay [3].

Regarding `COCc1cc(F)c(-c2nc(C(=O)Nc3cnc4c(c3N3C[C@@H](N)[C@H](O)[C@@H](C)C3)CCC4O)ccc2F)c(F)c1` (single isomer, unassigned) [66 (Diastereoisomer 2)], the half-inhibitory concentration (IC50) in assay [1], in assay [2] and in assay [3] was at most 100 nM in each case.

For `COCc1cc(F)c(-c2nc(C(=O)Nc3cnc4c(c3N3C[C@@H](N)[C@H](O)[C@@H](C)C3)CCC4O)ccc2F)c(F)c1` (single isomer, unassigned) [66 (Diastereoisomer 1)], the IC50 in assay [1], in assay [2] and in assay [3] was at most 100 nM each time.

Turning to `Nc1cc(F)c(-c2c(F)cccc2F)nc1C(=O)Nc1cnc2c(c1N1CCC[C@H](N)C1)CCC2O` (single isomer, unassigned) [23 (Diastereoisomer 1)], the IC50 in assay [1], in assay [2] and in assay [3] was at most 100 nM in each case.

As for `Nc1sc(-c2c(F)cccc2F)nc1C(=O)Nc1cnc2c(c1N1CC[C@H](O)[C@@H](N)C1)CCC2` (single isomer, unassigned) [Example 24, 5-Amino-N-{4-[3,4-trans-3-amino-4-hydroxypiperidin-1-yl]-6,7-dihydro-5H-cyclopenta[b]pyridin-3-yl}-2-(2,6-difluorophenyl)-1,3-thiazole-4-carboxamide], the half-inhibitory concentration (IC50) was at most 100 nM in assay [1], over 2000 nM in assay [2] and at most 100 nM in assay [3].

(Values after patent US10265307B2, “Thiazolecarboxamides and pyridinecarboxamide compounds useful as Pim kinase inhibitors” (Incyte Corporation, priority 2013, dated 2019).)
